Laboratory results reported in patent US9006241B2, “Pyrimidine derivatives” (Noviga Research AB, priority 2011, dated 2015).
pEC50: −log10 of the molar value.

System: CCRF-CEM cancer cells - leukemia
Assay: Fluorometric Microculture Cytotoxicity Assay (FMCA), CCRF-CEM
Assay type: cell-based
Settings: Homo sapiens, 72 h incubation
Description: The Fluorometric Microculture Cytotoxicity Assay, FMCA (Larsson, R., et al.; Anticancer Res, 1989, 9, 1111-1119), is a three day non-clonogenic microplate-based cell viability assay used for measurement of the cytotoxic and/or cytostatic effect of compounds in vitro (Lindhagen, E. et al.; Nat. Protoc., 2008, 3, 1364-1369). FMCA represents a valuable method to measure cytotoxicity in a number of cell types, both cell lines and primary cells from patients (Larsson, R., et al.; Int. J. Cancer, 1992, 50, 177-185; Fridborg, H., et al.; Eur. J. Cancer, 1999. 35, 424-432; Dhar, S., et al.; Br. J. Cancer, 1996, 74, 888-896).
FMCA is based on the principle that fluorescein diacetate (FDA) is converted to the fluorescent probe fluorescein by esterases in the plasma membranes of living cells. For experiments, 96 or 384-well microplates are prepared with compounds and stored at −70° C. until use. Cells are then seeded into the drug-prepared plates and placed in an incubator for 72 h. On the last day of incubation, the plates are washed and a buffer containing FDA is added and incubated with the cells for 45 minutes. Finally the fluorescence per well is measured in a fluorometer and a Survival Index % (SI) for each compound-treated well is calculated with the equation: Compound-treated cells minus blank divided by control cells minus blank. A high SI-value indicates a large percentage of living cells and vice versa.
In subsequent experiments, compounds were tested, along with a number of approved cancer drugs (dasatinib, pazopanib, sorafenib, and sunitinib) as described above. Initially, the acute lymphoblastic leukemia cell line CCRF-CEM was used throughout. In the assay plates, medium was added to six empty wells (blank wells) and wells were filled with PBS and cell suspension and served as control wells. SI-values were then calculated for each compound-treated well as described above. All experiments were conducted twice and a new batch of plates was prepared for each experiment.
For dose-response experiments, 384-well plates were prepared as follows:
Compounds of the invention as well comparative kinase inhibitors sorafenib sunitinib, dasatinib, pazopanib and a reference compound disclosed in WO 2009/071535 (compound #107) were diluted with PBS to a concentration ten-times higher than the desired starting concentration. Then, a Biomek 2000 liquid handling system was employed to serially dilute the compounds in a deep-well 384-well plate. From this plate, assay plates containing 5 μl compound per well were prepared with the Biomek 2000. Certain compounds precipitated when diluted with PBS, and these compounds were therefore prepared in a 96-well plate manually as described above using culture medium RPMI 1640 instead of PBS.
The compounds were also tested at five concentrations, with five times serial dilution on the following cell types: CCRF-CEM, hTERT-RPE1 (normal retinal epithelial cells), hRPTEpiC (normal renal cells), and peripheral blood mononuclear cells (PBMC). Each experiment was performed three times, except for PBMC and hRPTEpiC, which were performed twice. SI-values were calculated, graphs were plotted using GraphPadPrism 5.0 (GraphPad Software Inc. La Jolla, Calif.) and IC50-values for each cell type and compound were determined from the curves.

| Compound | pEC50 |
| --- | --- |
| COc1ccc2[nH]cc(CCNc3nccc(Nc4cccc5[nH]c(C)cc45)n3)c2c1 [Example 77, N^2-[2-(5-methoxy-1H-indol-3-yl)ethyl]-N^4-(2-methyl-1H-indol-4-yl)pyrimidine-2,4-diamine] | > 7.00 |
| CCOc1ccc2[nH]cc(CCNc3nccc(Nc4cccc5c4ccn5C)n3)c2c1 [Example 80, N^2-[2-(5-ethoxy-1H-indol-3-yl)ethyl]-N^4-(1-methylindol-4-yl)pyrimidine-2,4-diamine] | > 7.00 |
| COc1ccc2[nH]cc(CCNc3nccc(Nc4ccc5c(c4)nc(C)n5C)n3)c2c1 [Example 53, N^4-(1,2-dimethyl-1H-benzo[d]imidazol-5-yl)-N^2-[2-(5-methoxy-1H-indol-3-yl)ethyl]pyrimidine-2,4-diamine] | 7.48 |
| CCOc1ccc2[nH]cc(CCNc3nc(C)cc(Nc4ccc5[nH]c(C)cc5c4)n3)c2c1 [Example 55, N^2-[2-(5-ethoxy-1H-indol-3-yl)ethyl]-6-methyl-N^4-(2-methyl-1H-indol-5-yl)pyrimidine-2,4-diamine] | 7.28 |
| COc1ccc2[nH]cc(CCNc3nccc(Nc4ccc5cc[nH]c5c4)n3)c2c1 [Example 20, N^4-(1H-indol-6-yl)-N^2-[2-(5-methoxy-1H-indol-3-yl)ethyl]pyrimidine-2,4-diamine] | 6.85 |
| COC(=O)c1cc2cc(Nc3ccnc(NCCc4c[nH]c5ccc(OC)cc45)n3)ccc2[nH]1 [Example 16, methyl 5-{2-[2-(5-methoxy-1H-indol-3-yl)ethylamino]pyrimidin-4-ylamino}-1H-indole-2-carboxylate] | 6.03 |
| Cn1ccc2c(Nc3ccnc(NCCc4c[nH]c5ccc(O)cc45)n3)cccc21 [Example 79, 3-[2-({4-[(1-methylindol-4-yl)amino]pyrimidin-2-yl}amino)ethyl]-1H-indol-5-ol] | > 6.00 |
| Cc1cc2cc(Nc3ccnc(NCCc4c[nH]c5ccc(OC(C)C)cc45)n3)ccc2[nH]1 [Example 49, N^2-[2-(5-isopropoxy-1H-indol-3-yl)ethyl]-N^4-(2-methyl-1H-indol-5-yl)pyrimidine-2,4-diamine] | 7.00 |
| COc1ccc2[nH]cc(CCNc3nccc(Nc4cccc5[nH]ccc45)n3)c2c1 [Example 21, N^4-(1H-indol-4-yl)-N^2-[2-(5-methoxy-1H-indol-3-yl)ethyl]pyrimidine-2,4-diamine] | 7.23 |
| COc1ccc2[nH]cc(CCNc3nccc(Nc4ccc5c(c4)nc(CO)n5C)n3)c2c1 [Example 60, (5-{2-[2-(5-methoxy-1H-indol-3-yl)ethylamino]pyrimidin-4-ylamino}-1-methyl-1H-benzo[d]imidazol-2-yl)methanol] | 6.68 |
| CCOc1ccc2[nH]cc(CCNc3nccc(Nc4cccc5[nH]c(C)nc45)n3)c2c1 [Example 83, N^2-[2-(5-ethoxy-1H-indol-3-yl)ethyl]-N^4-(2-methyl-1H-benzimidazol-4-yl)pyrimidine-2,4-diamine] | > 6.00 |
| COc1ccc2[nH]cc(CCNc3nc(C)cc(Nc4ccc5[nH]c(C)nc5c4)n3)c2c1 [Example 57, N^2-[2-(5-methoxy-1H-indol-3-yl)ethyl]-6-methyl-N^4-(2-methyl-1H-benzo[d]imidazol-5-yl)pyrimidine-2,4-diamine] | 6.64 |
| CCOc1ccc2[nH]cc(CCNc3nccc(Nc4cccc5[nH]c(C)cc45)n3)c2c1 [Example 78, N^2-[2-(5-ethoxy-1H-indol-3-yl)ethyl]-N^4-(2-methyl-1H-indol-4-yl)pyrimidine-2,4-diamine] | > 7.00 |
| COc1cc(C)c2[nH]cc(CCNc3nccc(Nc4ccc5[nH]c(C)cc5c4)n3)c2c1 [Example 51, N^2-[2-(5-methoxy-7-methyl-1H-indol-3-yl)ethyl]-N^4-(2-methyl-1H-indol-5-yl)pyrimidine-2,4-diamine] | 7.12 |
| COc1ccc2c(CCNc3nccc(Nc4ccc5[nH]c(C)cc5c4)n3)c[nH]c2c1 [Example 11, N^2-[2-(6-methoxy-1H-indol-3-yl)ethyl]-N^4-(2-methyl-1H-indol-5-yl)pyrimidine-2,4-diamine] | 6.82 |
| Cc1cc2cc(Nc3nccc(NCCc4c[nH]c5ccccc45)n3)ccc2[nH]1 [Example 22, N^4-[2-(1H-indol-3-yl)ethyl]-N^2-(2-methyl-1H-indol-5-yl)pyrimidine-2,4-diamine] | 5.47 |
| COc1ccc2[nH]cc(CCNc3ncc(C)c(Nc4ccc5[nH]c(C)cc5c4)n3)c2c1 [Example 29, N^2-[2-(5-methoxy-1H-indol-3-yl)ethyl]-5-methyl-N^4-(2-methyl-1H-indol-5-yl)pyrimidine-2,4-diamine] | 7.24 |
| COc1ccc2[nH]cc(CCNc3nccc(Nc4ccc5cc(C)[nH]c5c4)n3)c2c1 [Example 73, N^2-[2-(5-methoxy-1H-indol-3-yl)ethyl]-N^4-(2-methyl-1H-indol-6-yl)pyrimidine-2,4-diamine] | > 7.00 |
| Cc1ccc(Nc2nccc(N(C)c3ccc4c(C)n(C)nc4c3)n2)cc1S(N)(=O)=O [Ref. 4, pazopanib, reference compound] | 4.59 |
| CCOc1ccc2[nH]cc(CCNc3nc(C)cc(Nc4ccc5[nH]c(C)nc5c4)n3)c2c1 [Example 58, N^2-[2-(5-ethoxy-1H-indol-3-yl)ethyl]-6-methyl-N^4-(2-methyl-1H-benzo[d]imidazol-5-yl)pyrimidine-2,4-diamine] | 6.77 |
| COc1ccc2[nH]cc(CCNc3nc(Nc4cccc5c4ccn5C)cc(N4CCN(C)CC4)n3)c2c1 [Example 89, N^2-[2-(5-methoxy-1H-indol-3-yl)ethyl]-N^4-(1-methylindol-4-yl)-6-(4-methylpiperazin-1-yl)pyrimidine-2,4-diamine] | > 6.00 |
| COc1cccc2c(CCNc3nccc(Nc4ccc5[nH]c(C)cc5c4)n3)c[nH]c12 [Example 12, N^2-[2-(7-methoxy-1H-indol-3-yl)ethyl]-N^4-(2-methyl-1H-indol-5-yl)pyrimidine-2,4-diamine] | 6.89 |
| COc1ccc2[nH]c(C)c(CCNc3nc(C)cc(Nc4ccc5[nH]c(C)cc5c4)n3)c2c1 [Example 56, N^2-[2-(5-methoxy-2-methyl-1H-indol-3-yl)ethyl]-6-methyl-N^4-(2-methyl-1H-indol-5-yl)pyrimidine-2,4-diamine] | 6.89 |
| COc1ccc2[nH]cc(CCNc3nccc(Nc4ccc5c(c4)ncn5C)n3)c2c1 [Example 52, N^2-[2-(5-methoxy-1H-indol-3-yl)ethyl]-N^4-(1-methyl-1H-benzo[d]imidazol-5-yl)pyrimidine-2,4-diamine] | 6.37 |
| Cc1cc(Nc2ccc3[nH]c(C)cc3c2)nc(NCCc2c[nH]c3ccccc23)n1 [Example 26, N^2-[2-(1H-indol-3-yl)ethyl]-6-methyl-N^4-(2-methyl-1H-indol-5-yl)pyrimidine-2,4-diamine] | 6.19 |
| Cc1cc2cc(Nc3ccnc(NCCc4c[nH]c5ccc(F)cc45)n3)ccc2[nH]1 [Example 10, N^2-[2-(5-fluoro-1H-indol-3-yl)ethyl]-N^4-(2-methyl-1H-indol-5-yl)pyrimidine-2,4-diamine] | 6.55 |
| COc1ccc2[nH]cc(CCNc3nc(Nc4ccc5[nH]c(C)cc5c4)cc(C(N)=O)n3)c2c1 [Example 28, 2-[2-(5-methoxy-1H-indol-3-yl)ethylamino]-6-(2-methyl-1H-indol-5-ylamino)pyrimidine-4-carboxamide] | 7.24 |
| Cc1cc2cc(Nc3ccnc(NCCc4c[nH]c5ccc(OCCN6CCOCC6)cc45)n3)ccc2[nH]1 [Example 6, N^4-(2-methyl-1H-indol-5-yl)-N^2-{2-[5-(2-morpholinoethoxy)-1H-indol-3-yl]ethyl}pyrimidine-2,4-diamine] | 5.54 |
| c1ccc2c(CCNc3ccnc(Nc4cccc5[nH]ccc45)n3)c[nH]c2c1 [Example 25, N^4-[2-(1H-indol-3-yl)ethyl]-N^2-(1H-indol-4-yl)pyrimidine-2,4-diamine] | 5.00 to 6.00 |
| COc1ccc2[nH]cc(CCNc3nc(Nc4ccc5[nH]c(C)cc5c4)cc(N4CCN(C)CC4)n3)c2c1 [Example 30, N^2-[2-(5-methoxy-1H-indol-3-yl)ethyl]-N^4-(2-methyl-1H-indol-5-yl)-6-(4-methylpiperazin-1-yl)pyrimidine-2,4-diamine] | 5.52 |
